For data set [1], the system named is layer of rat vascular endothelial cells and layer of rat smooth muscle cells on porous membrane. Description: FITC-Dextran permeability test of cell-layer-affixed blood vessel model after drug exposure. The class given is cell-based. The conditions noted are these: drug 500 ng/ml, 0.7 μL/min, one day, upper microchannel, imaged two minutes after running FITC-Dextran. As for the experimental part: The cells employed in example 3 and comparative example 3 were the same as that employed in example 2 and comparative example 2. To form the cell layers, the lower microchannel was initially seeded with 100 μL of a cell suspension of rat smooth muscle cells having a cell concentration of 3×10^6 cells/ml. After a day of cultivation, the upper microchannel was seeded with 100 μL of a cell suspension of rat vascular endothelial cells having a cell concentration of 1×10^6 cells/ml and cultivated for six hours. Then, a respective culture medium (rat EC medium/SMC medium) was run through each channel with a rate of fluid delivery of 0.7 μL/min using a pump. After two days of cultivation, the cell-layer-affixed blood vessel models of example 3 and comparative example 3 were obtained. […]
Two minutes after running the FITC-Dextran through the channels, an inverted microscope (product name Eclipse Ts2, made by Nikon) was used to image fluorescence in the microchannels. […]
After drug exposure, a FITC-Dextran permeability test was performed using the same method as the FITC-Dextran permeability test for the cell-layer-affixed blood vessel models described above. […] In the cell-layer-affixed blood vessel model of comparative example 3, the fluorescence observed in the lower microchannel was minimal. […]

Data set [2] shares this test system. Description: fluorescent bead permeability test of cell-layer-affixed blood vessel model after drug exposure. The conditions noted are these: drug 50 μg/ml, 0.7 μL/min, one day, both microchannels, 4 μm beads 1.81×10^6 beads/ml in upper microchannel. The class given is cell-based. Here is the method:
In example 2 and comparative example 2, Rat Arterial Endothelial Cells produced by Angio-Proteomie were employed for the rat vascular endothelial cells, and Rat Aortic Smooth Muscle Cells produced by Lonza were employed for the rat smooth muscle cells. The lower microchannel was initially seeded with 100 μL of a cell suspension of rat smooth muscle cells having a cell concentration of 3×10^6 cells/ml. After a day of cultivation, the upper microchannel was seeded with 100 μL of a cell suspension of rat vascular endothelial cells having a cell concentration of 3×10^6 cells/ml. After two days of cultivation, the cell-layer-affixed blood vessel models of example 2 and comparative example 2 were obtained.
A culture medium dilution containing fluorescent beads at a concentration of 1.81×10^6 beads/ml for a tracer was run through the upper microchannel of the cell-layer-affixed blood vessel models produced in example 2 and comparative example 2, and a culture medium not containing fluorescent beads was run through the lower microchannel. […]

Experimental findings from patent US12504425B2, “Blood vessel model” (FUJIFILM CORPORATION, priority 2017, dated 2025) are described below.

For `Oc1ccc(C2CNCCc3c2cc(O)c(O)c3Cl)cc1` (stereo not shown) [fenoldopam], the “FITC-Dextran fluorescence observed in the lower microchannel” value in data set [1] (blood vessel model of comparative example 3 (track-etched porous membrane)) was “minimal”. Besides, in data set [1] (blood vessel model of example 3 (honeycomb porous membrane)), the “FITC-Dextran fluorescence observed in the microchannels” value is reported as “fluorescence was observed over a wide area, including in the lower microchannel”.
With cytochalasin, the “number of fluorescent beads inside the lower microchannel” value is 6.7×10^3 beads/ml in data set [2] (blood vessel model of comparative example 2 (track-etched porous membrane)) and 1.7×10^5 beads/ml in data set [2] (blood vessel model of example 2 (honeycomb porous membrane)).
